Experimental data published in EPA's ToxValDB 9.5 (doi:10.2903/j.efsa.2018.5126).
Values after ≈ are worked out from the molar mass of the structure shown.

Tests used:
Colinus virginianus = conditions: chronic
Rattus norvegicus = conditions: for LD50: acute, mortality
Anas platyrhynchos = conditions: acute; oral; unspecified; mortality
Oncorhynchus mykiss = conditions: acute; duration: 96 hours; mortality
Bibionidae = conditions: chronic/long-term; duration: 28 days
Landoltia sp. = conditions: chronic/long-term; duration: 7 days; frond number
Tagia sp. = conditions: chronic/long-term; duration: 56 days; growth
Neomysis kadiakensis = conditions: chronic/long-term; duration: 28 days; reproduction
Apis mellifera = conditions: acute, mortality
Oryctolagus sp. = conditions: reproduction developmental; body weight
Navicula pelliculosa = conditions: acute; duration: 72 hours; growth
Aphidius rhopalosiphi = test: LR50; higher = less toxic; conditions: acute; mortality

| Compound | NOAEL (Colinus virginianus) [mg/kg-day] | LD50 (Rattus norvegicus) [mg/kg-day] | NOAEL (Rattus norvegicus; reproduction developmental, body weight) [mg/kg-day] | LD50 (Anas platyrhynchos) [mg/kg-day] | LC50 (Oncorhynchus mykiss) [µg/mL] | LC50 (acute, duration: 96 hours, mortality) [µg/mL] | NOEC (chronic) [mg/L] | NOEC (Bibionidae) [mg/L] | NOAEL (Rattus norvegicus; chronic, duration: 26 months, organ weight) [mg/kg-day] | NOAEL (Rattus norvegicus; reproduction developmental, histopathology: nonneoplastic) [mg/kg-day] | NOAEL (Rattus norvegicus; subchronic, duration: 90 days, oral, histopathology: nonneoplastic) [mg/kg-day] | NOEC (Landoltia sp.) [mg/L] | NOEC (Tagia sp.) [mg/kg] | NOEC (Neomysis kadiakensis) [mg/L] | LD50 (Apis mellifera; dermal) [µg/piece] | LD50 (Apis mellifera; oral, unspecified) [µg/piece] | NOAEL (Oryctolagus sp.) [mg/kg-day] | NOEC (Navicula pelliculosa) [mg/L] | LR50 (Aphidius rhopalosiphi) [g/ha] |
| --- | --- | --- | --- | --- | --- | --- | --- | --- | --- | --- | --- | --- | --- | --- | --- | --- | --- | --- | --- |
| N#Cc1c(O)c(Cl)c(Cl)c(C#N)c1Cl [4-Hydroxy-2,5,6-trichloroisophthalonitrile] | 10.1 | 242 | 1.5 | 158 | – | – | – | – | – | – | – | – | – | – | – | – | – | – | – |
| N#Cc1c(Cl)c(Cl)c(Cl)c(C#N)c1Cl [Chlorothalonil] | – | > 5000 | – | > 2000 | 0.017 (≈ 0.0639 µM) | 0.0107 (≈ 0.0402 µM) | 0.003 | 0.04 | 1.8 | < 22.6 | 1.5 | 0.187 | 0.75 | 0.0004 | > 40 | > 40 | < 5 | 0.013 | > 262 |
